{"source": "patent US20100226900A1", "about": "“PREVENTION AND TREATMENT OF OSTEOCHONDROSIS IN ANIMALS AND HUMANS” (U.S. Borax Inc., priority 2005, published 2010)", "key": {"sows and piglets": {"system": "sows and piglets", "assay_type": "in vivo", "experimental": "Boron was added to the diet of sows at 1 mg/kg body weight as boric acid. […] Among a group of 95 piglets the birth to weaning mortality was 2 piglets. The usual mortality for this farm was about 5 to 7%. These piglets remained on boron 50 ppm plus ascorbate 125 ppm. One pig was euthanized and examined at a weight of about 85 pounds. […] All bones of the appendicular skeleton were sectioned on the band saw."}, "pigs": {"system": "pigs", "conditions": "about 100 pigs, 50 ppm boron as boric acid", "text": "An Iowa farm treated a group of about 100 pigs with 50 ppm boron as boric acid."}, "[1]": {"system": "gestating and lactating sows and their piglets", "assay": "Reproductive effects in sows: observation and preliminary pilot study (Example 3)", "description": "Sows were fed a standard corn-soy diet. Half of the sows received an oral administration of a boron supplement to provide 1 mg boron per kg body weight."}, "[2]": {"system": "growing swine (osteochondrosis)", "assay": "Boron supplementation and OC-associated lameness in growing swine (Example 1)", "assay_type": "in vivo, pig", "experimental": "The basal diet consisted of commercial corn-soy diet containing 10 ppm boron.\nTest diet group B was fed a basal diet plus 25 mg/kg boron as sodium borate decahydrate (borax). Test diet group A was fed a basal diet plus 25 mg/kg boron as sodium borate decahydrate (borax) and 250 mg/kg ascorbic acid.\nPigs were weighed at the beginning of the study, 4 weeks later and every 3 weeks until the end of the study. Animals were scored for soundness on a 5-point scale at each weighing. (Five-point scale: 1=no soundness defects; 2=minor soundness issues but still sound enough for retention as breeding animal; 3=not sound enough for retention for breeding but still marketable; 4=unsound, likely to be rejected at slaughter; 5=severely lame, requiring euthanasia for humane reasons.) Grading was done by the caretaker and the investigator at all weighing times. An experienced independent treatment-blind rater also evaluated the soundness of each animal and the ratings he provided were compared with the ratings of the caretaker and investigator by use of Cohen's Kappa test.\nThe animals were housed in a modern curtain sided barn with deep straw bedding, with ad libitum access to feed and water. Waterers and feeders were on a concrete pad but the remainder of the flooring was deep straw over a ground limestone and sand base. Floor space allowances exceeded the recommendations of the Guide for the Care and Use of Agricultural Animals in Agricultural Research and Teaching, First Revised Edition, 1999. Federation of Animal Science Societies. Savoy, Ill.\nThe basal diet (no boron supplemented) was analysed and found to contain boron at the rate of 10 ppm which is typical for a corn-soybean meal based diet.\nAt the end of the study the pigs were transported to a laboratory where they were euthanized and necropsied. Six pigs in each of group B and group A were put on the control diet for 7 days at the end of the study.\nAt necropsy, samples of liver, heart, kidney, fat, skeletal muscle, proximal tibia, blood, and the rostral snout were retained and frozen at −40° C. prior to chemical analysis. All joints of the axial skeleton were evaluated for the presence of gross lesions of osteochondrosis and graded on a 5 point scale. (5-point scale: 1=no gross abnormalities; 2=minor imperfections in articular conformation or articular reddening present but no cartilage erosions; 3=cartilage intact but surface irregularities of the cartilage are present; 4=fissuring or erosion of articular cartilage is obvious; 5=full thickness cartilage lesions or cartilage flaps, osteochondritis dissecans obviously present).\nThe proximal femur (femoral head) and articular surfaces and growth plates associated with the stifle, hock, shoulder, elbow and carpus were sectioned with a band saw and approx. 0.5 to 1.0 cm sections fixed in formalin. Bone sections were decalcified with formic acid/sodium citrate, embedded in paraffin and sectioned at 5 microns. Sections were deparaffinized according to standard procedures. Two sections were made from each joint and growth plate and stained with either hematoxylin/eosin (H&E) or with toluidine blue (pH 4)/fast green for evaluation of the articular cartilage, subchondral bone and growth plate.\nMean joint lesion scores, growth rate and soundness scores by treatment and by factors boron and ascorbate were compared using an analysis of variance and t-test as appropriate. Soundness scores were dichotomised into binary categorical variables for lameness (soundness score>2) and for absence of defects (soundness<2), and the binary variables analysed by chi-square and logistic regression.\nTissue specimens stained with H&E were examined microscopically for the presence of lesions of osteochondrosis. Toluidine Blue staining allowed assessment of retention or loss of proteoglycan from the extracellular matrix (ECM) of the cartilage. Each tissue section was scored by a treatment-blind board-certified pathologist. […]"}, "crossbred pigs": {"system": "crossbred pigs", "assay": "28-day feeding trial: phosphorus digestibility and excretion, feed conversion (Example 4)", "assay_type": "in vivo, pig", "experimental": "Pigs were randomly allocated to 24 pens of 6 pigs per pen in a thermoneutral controlled environment barn with steel grid flooring. Each pen was equipped with a single-hole feeder. Water was available free-choice from a nipple drinker. […] Feces were collected on the last 3 days of the study from each pen and a pooled aliquot was dried and submitted for chemical analysis. Yttrium oxide was added to the diet at 0.05% and served as a marker for phosphorus digestibility. Pig growth and feed consumption was measured at the end of the study with the pen as the experimental unit. Data was analyzed for effects of boron and calcium by univariate and multivariate analysis of variance and t-tests."}, "sows and their litters": {"system": "sows and their litters", "assay": "Sow and litter trial in a commercial swine operation during a PRRSV outbreak (Example 3)", "assay_type": "in vivo, pig", "conditions": "sows given oral 1 mg boron per pound BW per day", "experimental": "To test the effect of boron on sows and their litters, a trial was established in a large commercial swine operation during an outbreak of porcine viral reproductive and respiratory disease (PRRSV). Boron was administered orally to a group of 51 sows individually housed in crates at the rate of 1 mg boron per pound BW per day beginning 1 week prior to farrowing and continuing until the piglets were weaned at 14 days of age. […] Boron treatment was supplied as a single daily dosing and was discontinued at weaning. All sows were fed a standard commercial sow diet."}, "[3]": {"system": "sulfated glycosaminoglycan (sGAG) of cartilage", "assay": "Glycosaminoglycan study: sGAG in articular cartilage plugs of fed pigs (Example 2)", "assay_type": "in vivo, pig", "conditions": "pigs fed 50 ppm boron; hock and elbow joints; unsupplemented 5045 ng/g; p<0.01", "experimental": "Hock joints and elbow joints were obtained at necropsy from pigs in two feeding groups: one group having been fed a commercial ration supplemented with 50 mg B/kg feed and the other being fed only the standard commercial pig ration.\nCartilage plugs were harvested from the articular surfaces of 40 hock and elbow joints using a #5 (10.5 mm) cork borer. The samples were papain digested and analyzed for concentration of sulfated glycosaminoglycan (sGAG) using a spectrophotometric microplate analysis procedure adapted from Farndale, et al (1986), using a chondrotin sulfate standard. This method measures total sulfated glycosaminoglycan, most of which is chondrotin sulfate and keratan sulfate components of aggrecan. Aggrecan is the large aggregating proteoglycan of cartilage responsible for creating and maintaining the osmotic pressure of cartilage. Quanititation of sGAG concentration thus provides a measure of the weight-bearing and anti-friction properties of cartilage and is a measure of cartilage quality and durability."}, "[4]": {"system": "pigs (boron crosslinks, osteochondrosis)", "description": "The pigs were evaluated for lameness daily and euthanatized on day 13 and the joints and other organs were examined."}, "[5]": {"conditions": "sows fed 50 ppm supplemental boron, late gestation and early lactation"}, "[6]": {"conditions": "boron 50 ppm in feed, 3-NPB none, 5 pigs"}}, "data": [{"compound": "OB(O)O", "note": "[boric acid]", "values": [{"measurement": "Birth to weaning mortality", "setting": "sows and piglets; among a group of 95 piglets, usual mortality of the farm about 5 to 7%", "value": 2, "unit": "piglets"}, {"measurement": "Outcome in three noticeably and seriously lame sows", "setting": "sows and piglets; sows, boron 1 mg/kg body weight as boric acid in diet", "value": "became perfectly sound"}, {"measurement": "Growth rate", "setting": "pigs", "value": "excellent growth rate"}, {"measurement": "Lameness/unsoundness rate", "setting": "pigs; estimated previous rate about 25 to 30%", "value": "zero"}]}, {"compound": "[B]", "note": "[boron]", "values": [{"measurement": "Piglet weight at 12 days of age", "setting": "[1]; pilot study, sows given oral 1 mg boron per kg body weight, non-supplemented 8.0 pounds", "value": 8.5, "unit": "pounds"}, {"measurement": "Pre-weaning mortality", "setting": "[1]; pilot study, sows given oral 1 mg boron per kg body weight, non-supplemented 23%, preliminary, first 600 pigs", "value": 16, "unit": "%"}, {"measurement": "Piglet quality (uniformity, growth, general thrift)", "setting": "[1]; [5]", "value": "improved"}, {"measurement": "Pre-weaning piglet mortality (observation)", "setting": "[1]; [5]", "value": "reduced"}, {"measurement": "Joint health vs basal diet (FIG. 1)", "setting": "[2]; 25 mg/kg boron as borax vs basal diet", "value": "healthier joints"}, {"measurement": "Growth plate lesions associated with widening, share of tissues", "setting": "[2]; 25 ppm boron in feed (as borax), unsupplemented group 57%", "value": 19, "unit": "%"}, {"measurement": "Articular cartilage lesions (necrosis, hemorrhage, infarction, or streaks), share of tissues", "setting": "[2]; 25 ppm supplemental B in feed, unsupplemented pigs 21%", "value": 4, "unit": "%"}, {"measurement": "TBlue staining intensity of cartilage (semi-quantitative sGAG content)", "setting": "[2]; boron supplemented group vs unsupplemented", "value": "consistently higher"}, {"measurement": "Incidence of osteochondrosis-associated lameness", "setting": "[2]; growing swine, boron supplementation", "value": "effective in reduction"}, {"measurement": "Occurrence of osteochondrosis", "setting": "[2]; pigs, supplemental boron 25 ppm to 50 ppm (FIGS. 1, 3, 4)", "value": "significant reduction"}, {"measurement": "Phosphorus Digestibility (%)", "setting": "crossbred pigs; 50 ppm added B in feed, 28 days, no added B 33.4, p 0.017", "value": 36.3, "unit": "%"}, {"measurement": "Phosphorus excretion in Feces (g/Kg gain)", "setting": "crossbred pigs; 50 ppm added B in feed, 28 days, no added B 88.1, p 0.028", "value": 74.6, "unit": "g/Kg gain"}, {"measurement": "Reduction of phosphorus excretion per unit of production", "setting": "crossbred pigs; boron added to the diet vs no added boron", "value": 15, "unit": "%"}, {"measurement": "Effect on litter size at birth", "setting": "sows and their litters", "value": "no effects"}, {"measurement": "Effect on piglet birth weight", "setting": "sows and their litters", "value": "no effects"}, {"measurement": "Likelihood to conceive relative to control sows", "setting": "sows and their litters; p=0.04", "value": 1.2, "unit": "times"}, {"measurement": "Return to estrus, average days quicker than control sows", "setting": "sows and their litters; p=0.047", "value": 1.6, "unit": "days"}, {"measurement": "Joint findings at necropsy", "setting": "sows and piglets; one pig of about 85 pounds kept on boron 50 ppm plus ascorbate 125 ppm", "value": "No abnormalities were observed"}, {"measurement": "sGAG concentration in cartilage (dry matter basis)", "setting": "[3]", "value": 11050, "unit": "ng/g"}, {"measurement": "Clinical Lameness Score: count of pigs Normal", "setting": "[4]; [6]", "value": 5}, {"measurement": "Clinical Lameness Score: count of pigs with Visible Lameness", "setting": "[4]; [6]", "value": 0}, {"measurement": "Prevalence and severity of osteochondrosis lesions in shoulder, stifle, hock and elbow joints", "setting": "[4]; supplemental boron, no 3-NPB", "value": "lowest prevalence of lesions and the lowest severity"}]}]}
